# Test results published in patent publication US20110098309A1, “METHODS OF INHIBITING THE FORMATION OF AMYLOID-BETA DIFFUSABLE LIGANDS USING ACYLHYDRAZIDE COMPOUNDS” (priority 2007, published 2011).
# Molecular target: Aβ1-42 (Homo sapiens, UniProt P05067)
# Assay: FRET assay of Aβ1-42 oligomer (ADDL) assembly inhibition
# Format: biochemical
# Details: 0.2 μM FITC-Aβ(1-42) and 0.8 μM Aβ(1-42), 37° C., six concentrations from about 10 μM to about 0.03 μM
# Description: Fluorescence (or Förster) Resonance Energy Transfer (FRET) is a distance-dependent, non-radiative transfer of energy in which the de-excitation of one fluorophore (donor) is coupled to excitation of another fluorophore (acceptor). FRET occurs if (1) the quantum of energy emitted by a donor fluorophore corresponds to an acceptor fluorophore's excitation energy, (2) the orientations of donor and acceptor transition dipoles are nearly parallel and (3) the donor fluorescent emission spectrum overlaps the acceptor absorption spectrum.
# In this assay, assembly of Aβ1-42 oligomer formation is monitored by FRET using N-terminal conjugates of fluorescein-Aβ1-42 as both the donor and acceptor fluorophore (fluorescein-fluorescein Ro˜45 Å). […] Inhibition of Aβ1-42 assembly is observed as the absence or attenuation of fluorescein quenching.
# FRET and FP assays are performed in 384-well Corning Non-Binding Surface, black, opaque microtiter plates, and the assay buffer consists of 25 mM MOPS-Tris (pH 8.0) with 100 mM MgCl2. The assay volume, containing 0.2 μM FITC-Aβ(1-42) and 0.8 μM Aβ(1-42), is 50 μl and the temperature is 37° C. […] Kinetic traces are collected by recording fluorescence intensity and polarization readings every five minutes over about a three hour time course. […] Positive control reactions contain all buffer components in the absence of added small molecule or antibody reagents. To test for ADDL assembly inhibition, the compound was incubated with the peptide mixture at six concentrations from about 10 μM decreasing to about 0.03 μM.
# Aβ1-42, sequence (P05067 672-713 limits assumed): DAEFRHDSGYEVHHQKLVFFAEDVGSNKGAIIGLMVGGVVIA
row,Structure (SMILES),IC50
1,"COc1ccc(/C=N/NC(=O)c2ccccc2O)c(O)c1 [Compound 81, 2-hydroxy-N′-(2-hydroxy-4-methoxy-benzylidene)benzohydrazide]",15 µM
2,"COc1ccc(O)c(/C=N/NC(=O)c2cc(OC)ccc2O)c1 [Compound 82, 2-hydroxy-N′-(2-hydroxy-5-methoxy-benzylidene)-5-methoxy-benzohydrazide]",15.1 µM
3,"COc1ccc(O)c(/C=N/NC(=O)c2cc(Cl)ccc2O)c1 [Compound 84, 5-chloro-2-hydroxy-N′-(2-hydroxy-5-methoxy-benzylidene)benzohydrazide]",15.5 µM
4,"O=C(N/N=C/c1cccc(O)c1O)c1ccccc1O [Compound 86, N′-(2,3-dihydroxy-benzylidene)-2-hydroxy-benzohydrazide]",17.4 µM
5,"O=C(N/N=C/c1ccc(N2CCOCC2)cc1O)c1ccccc1O [Compound 87, 2-hydroxy-N′-(2-hydroxy-4-morpholino-benzylidene)-benzohydrazide]",18.3 µM
6,"O=C(N/N=C/c1oc2ccc([N+](=O)[O-])cc2c1O)c1ccccc1O [Compound 88, 2-hydroxy-N′-((3-hydroxy-5-nitro-benzofuran-2-yl)methylene) benzohydrazide]",20.4 µM
7,"O=C(N/N=C/c1ccc(O)cc1O)c1ccccc1O [Compound 90, N′-(2,4-dihydroxybenzylidene)-2-hydroxy-benzohydrazide]",21.4 µM
8,"COc1cc(Cl)cc(/C=N/NC(=O)c2ccccc2O)c1O [Compound 91, N′-(5-chloro-2-hydroxy-3-methoxy-benzylidene)-2-hydroxy-benzohydrazide]",22.8 µM
9,"Cc1csc(C(=O)N/N=C/c2cc(Cl)ccc2O)c1Cl [Compound 92, 3-chloro-N′-(5-chloro-2-hydroxybenzylidene)-4-methylthiophene-2-carbohydrazide]",23.7 µM
10,"COc1cccc(/C=N/NC(=O)c2ccccc2O)c1O [Compound 94, 2-hydroxy-N′-(2-hydroxy-3-methoxybenzylidene)benzohydrazide]",24.9 µM
11,"COc1ccc(O)c(/C=N/NC(=O)c2c(O)cccc2F)c1 [Compound 95, 2-fluoro-6-hydroxy-N′-(2-hydroxy-5-methoxybenzylidene)benzohydrazide]",26.2 µM
12,"Cc1cc(C(=O)N/N=C/c2c(O)ccc3ccccc23)[nH]n1 [Compound 97, N′-((2-hydroxynaphthalen-1-yl)methylene)-3-methyl-1H-pyrazole-5-carbohydrazide]",30.6 µM
13,"O=C(N/N=C(/c1cc(Cl)ccc1O)C(F)(F)F)c1ccccc1O [Compound 102, N′-(1-(5-chloro-2-hydroxyphenyl)-2,2,2-trifluoroethylidene)-2-hydroxybenzohydrazide]",34 µM
14,"O=C(N/N=C/c1c(O)ccc2ccccc12)c1cc(C2CC2)n[nH]1 [Compound 103, 3-cyclopropyl-N′-((2-hydroxynaphthalen-1-yl)methylene)-1H-pyrazole-5-carbohydrazide]",34.5 µM
15,"CCOc1cccc(/C=N/NC(=O)c2ccccc2O)c1O [Compound 106, N′-(3-ethoxy-2-hydroxybenzylidene)-2-hydroxybenzohydrazide]",39.2 µM
16,"COc1ccc(O)c(/C=N/NC(=O)c2cc(-c3ccc(Cl)s3)n[nH]2)c1 [Compound 107, 3-(5-chlorothiophen-2-yl)-N′-(2-hydroxy-5-methoxybenzylidene)-1H-pyrazole-5-carbohydrazide]",40.1 µM
17,"O=C(N/N=C/c1cc(Cl)cc(Br)c1O)c1ccccc1O [Compound 108, N′-(3-bromo-5-chloro-2-hydroxybenzylidene)-2-hydroxybenzohydrazide]",41.7 µM
18,"COc1cc(Br)c(O)c(/C=N/NC(=O)c2ccccc2O)c1 [Compound 109, N′-(3-bromo-2-hydroxy-5-methoxybenzylidene)-2-hydroxybenzohydrazide]",42 µM
19,"COc1ccc(O)c(/C=N/NC(=O)c2ccccc2N)c1 [Compound 110, 2-amino-N′-(2-hydroxy-5-methoxybenzylidene)benzohydrazide]",42.3 µM
20,"Cc1nnsc1C(=O)N/N=C/c1cc(Cl)ccc1O [Compound 111, N′-(5-chloro-2-hydroxybenzylidene)-4-methyl-1,2,3-thiadiazole-5-carbohydrazide]",42.9 µM
21,"C/C(=N\NC(=O)c1cc(C)n[nH]1)c1ccccc1O [Compound 112, N′-(1-(2-hydroxyphenyl)ethylidene)-3-methyl-1H-pyrazole-5-carbohydrazide]",45.4 µM
22,"O=C(N/N=C/c1cc(Cl)ccc1NS(=O)(=O)c1ccc(F)cc1F)c1ccccc1O [Compound 114, N-(4-chloro-2-((2-(2-hydroxybenzoyl)hydrazono)methyl)phenyl)-2,4-difluorobenzenesulfonamide]",46.7 µM
23,"Cc1ccc(/C=N/NC(=O)c2ccc3c(c2)OCO3)c(O)c1 [Compound 116, N′-(2-hydroxy-4-methylbenzylidene)benzo[d][1,3]dioxole-5-carbohydrazide]",50 µM

# More lines, in order of falling IC50, values ahead:
row,IC50,Structure (SMILES)
1,47.6 µM,"O=C(N/N=C/c1c(O)ccc2ccccc12)c1ccc(O)cc1O [Compound 115, 2,4-dihydroxy-N′-((2-hydroxynaphthalen-1-yl)methylene)benzohydrazide]"
2,36.5 µM,"COc1ccc(O)c(/C=N/NC(=O)c2cccc3cccc(O)c23)c1 [Compound 105, 8-hydroxy-N′-(2-hydroxy-5-methoxybenzylidene)-1-naphthohydrazide]"
3,35.1 µM,"COc1ccc(O)c(/C=N/NC(=O)c2cc([N+](=O)[O-])ccc2O)c1 [Compound 104, 2-hydroxy-N′-(2-hydroxy-5-methoxybenzylidene)-5-nitrobenzohydrazide]"
4,33.4 µM,"O=C(N/N=C/c1cc(F)cc(F)c1O)c1ccccc1O [Compound 101, N′-(3,5-difluoro-2-hydroxybenzylidene)-2-hydroxybenzohydrazide]"
5,33.2 µM,"COc1ccc(O)c(/C=N/NC(=O)c2ccccc2NS(C)(=O)=O)c1 [Compound 100, N-(2-(2-(2-hydroxy-5-methoxybenzylidene)hydrazinecarbonyl)phenyl)methanesulfonamide]"
6,32.5 µM,"O=C(N/N=C/c1cc([N+](=O)[O-])ccc1O)c1ccccc1O [Compound 99, 2-hydroxy-N′-(2-hydroxy-5-nitrobenzylidene)benzohydrazide]"
7,31.9 µM,"COc1ccc(O)c(/C=N/NC(=O)c2cc(Br)ccc2O)c1 [Compound 98, 5-bromo-2-hydroxy-N′-(2-hydroxy-5-methoxybenzylidene)benzohydrazide]"
8,28.6 µM,"Cc1cccc(/C=N/NC(=O)c2ccccc2O)c1O [Compound 96, 2-hydroxy-N′-(2-hydroxy-3-methylbenzylidene)benzohydrazide]"
9,23.9 µM,"Nc1ccc(Cl)cc1/C=N/NC(=O)c1ccccc1N [Compound 93, 2-amino-N′-(2-amino-5-chlorobenzylidene)benzohydrazide]"
10,16 µM,"CCOc1ccc(O)c(/C=N/NC(=O)c2ccccc2O)c1 [Compound 85, N′-(5-ethoxy-2-hydroxy-benzylidene)-2-hydroxy-benzohydrazide]"
11,15.4 µM,"COc1ccc(O)c(/C=N/NC(=O)c2ccccc2O)c1 [Compound 83, 2-hydroxy-N′-(2-hydroxy-5-methoxy-benzylidene)benzohydrazide]"
